# Reference: ChEMBL document CHEMBL3639371, “KAT II inhibitors” (2013)
# Target: Kynurenine/alpha-aminoadipate aminotransferase, mitochondrial (Homo sapiens, UniProt Q8N5Z0)
# Test: Inhibition Spectra Assay : Formation of kynurenic acid (KYNA) is indirectly assessed by a decrease in light absorbance at 370 nm (OD370) as the L-kynurenine (KYN) substrate is converted by the human KAT II (hKAT II) enzyme into KYNA.
# Chain of Kynurenine/alpha-aminoadipate aminotransferase, mitochondrial (Q8N5Z0 whole entry): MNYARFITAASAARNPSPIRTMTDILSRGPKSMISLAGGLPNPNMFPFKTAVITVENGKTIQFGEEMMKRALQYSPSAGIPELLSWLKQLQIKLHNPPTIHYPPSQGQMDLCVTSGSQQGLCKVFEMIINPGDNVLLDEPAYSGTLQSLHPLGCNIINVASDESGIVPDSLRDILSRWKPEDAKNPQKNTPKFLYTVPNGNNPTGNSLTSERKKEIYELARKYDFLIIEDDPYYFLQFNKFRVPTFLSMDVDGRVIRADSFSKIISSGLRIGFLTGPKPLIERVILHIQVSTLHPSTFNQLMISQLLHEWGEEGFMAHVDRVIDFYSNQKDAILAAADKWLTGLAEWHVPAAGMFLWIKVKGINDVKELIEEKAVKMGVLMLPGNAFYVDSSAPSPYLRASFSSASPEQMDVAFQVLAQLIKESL
smiles,measurement,value
NC1Cc2nn(-c3ccccc3)cc2N(O)C1=O (stereo unspecified),IC50,85 nM
